Measurements as given in patent US5141627A, “Chelators whose affinity for calcium ion is increased by illumination” (The Regents of the University of California, priority 1989, dated 1992).
Entries after “also recorded” stand apart in the source; their conditions may differ.

Columns and labels:
[1] = Yield of high affinity chelator / low-affinity side product after photolysis; format: physicochemical; settings: after photolysis
Method: Because of the direct conjugation of the dialkylamine moiety with the diazoketone group, diazo-2 has a large absorbance in the 350-400 nm range, which shifts 50 nm to shorter wavelengths on binding Ca^2+ (FIG. 1A). The dissociation constant for Ca^2+ is relatively high, at 2.2 μM, due to the electron withdrawing ability of the carbonyl group. Photolysis occurs at 365 nm with a quantum yield of 0.030. The peak at […] in zero Ca^2+ decreases to near baseline giving a spectrum similar to that of unsubstituted BAPTA, although a small peak remains at 355 nm (FIG. 1B). […] The reaction of diazo-2 with dilute aqueous acid should give the same product whose absorbance spectrum indeed matched that of the residual peak at 355 nm after photolysis in low Ca^2+. […] Once the extinction coefficient for the hydroxyacetyl derivative was known, the amount of the side product arising from photolysis is calculated to be about 10%.

[2] = tested on: REF52 fibroblast cell; test: Intracellular free Ca2+ in REF52 fibroblasts on vasopressin stimulation and UV photolysis (fluo-3); format: cell-based, Fisher rat; settings: for effect of UV photolysis of intracellular chelator on [Ca2+]i (in words): 1 s UV after 50 nM [arg8]-vasopressin
Text: The tetraacetoxymethyl esters of diazo-2 and diazo-3 were synthesized. The acetoxymethyl (AM) groups mask the negative charges on the carboxylate functions, so the AM ester of diazo-2 and diazo-3 can easily diffuse across the cell membrane, which is largely impermeable to ions. Once inside the cell, non-specific esterases in the cell hydrolytically cleave the AM esters and restore diazo-2 and diazo-3 to their tetracarboxylate forms, which being polyanions, are trapped within the cell. […] Prior to the start of data acquisition (t=0), the REF52 fibroblast cell was loaded with diazo-2 and fluo-3. […] Its fluorescence quantum yield is enhanced about 40-fold by Ca^2+ binding, which occurs with a Kd of 400 nM.
Prior to the start of data acquisition, the REF52 fibroblast cell was loaded with fluo-3 and diazo-2 by incubation for 30 min at 25° C. DME medium containing 1 μM diazo-2/AM and 10 μM fluo-3/AM. Acquisition of fluo-3 fluorescence intensity images was begun at time 0. The fluorescence intensity data was converted to intracellular Ca^2+ concentrations using a calibration procedure previously described. The event markers correspond to 1) stimulating the cell with 50 nM [arg^8 ]-vasopressin,and 2) flashing the cell for 1 s with UV light.
The experimental conditions were the same as in (A) except that the cell wa loaded with fluo-3 and diazo-3 (instead of diazo-2) by incubation for 90 min at 25° C. in DME medium containing 10 μm fluo-3/AM and […] diazo-3/AM. The event markers correspond to 1) stimulating the cell with 50 nM [arg^8 ]-vasopressin, and 2) flashing the cell for 1 s of UV light.
For preliminary biological tests, Fisher rat embryo fibroblast of the REF52 cell line were cultured as described by J. P. Y. Kao, et al. (1989).
For testing diazo-2, REF52 cells were incubated for 30 min at 25° C. in Dulbecco's modified Eagle's medium, buffered at pH 7.4 with 20 mM HEPES and containing 1 μM diazo-2/AM and 10 μM fluo-3/AM. For control experiments using diazo-3, the cells were incubated for 90 min at 25° C. in DMEM, buffered to pH 7.4 with 20 mM HEPES and containing 1 μM diazo-3/AM and […] fluo-3/AM. After loading, the cells were gently washed, transferred into Hanks' Balanced Salt Solution containing 0.2 mM sulfinpyrazone to inhibit non-specific organic anion transport (see Tsien, 1989), and mounted on a 25° C. microscope stage for experimentation.
Flash photolysis of trapped cellular diazo-2 and the concomitant monitoring of intracellular free Ca^2+ concentration with fluo-3, a fluorescent Ca^2+ indicator, were performed using methodology and instrumentation described in A. Minta, et al (1989) and J. P. Y. Kao, et al. (1989). Briefly, output form a Xe arc lamp was passed through a monochromator to yield the 490 nm light used to probe the fluo-3 trapped intracellularly. The fluo-3 fluorescence images of cells were recorded using a SIT TV camera. Images were stored on a high-resolution monochrome laser disc recorder (Panasonic TQ-2028) for delayed processing. Photolyses were performed by briefly moving a chopper mirror to send broad-band UV from an XBO 75 W xenon arc lamp and UG-2 filter into the microscope instead of 490 nm fluo-3 excitation. The microscope objective (Nikon UV-CF, 40X) was chosen for its high UV transmission and numerical aperture (1.3). […] The same computer was used to analyze the fluorescence images acquired during the experiment.

Photolysis yield (yield of high affinity Ca2+ chelator after photolysis) [1] | SMILES | effect of UV photolysis of intracellular chelator on [Ca2+]i (in words) [2] | [Ca2+]i immediately after photolysis ([2]; after 1 s UV, cell stimulated with 50 nM [arg8]-vasopressin, loaded with diazo-2/AM)
90 | Cc1ccc(N(CC(=O)O)CC(=O)O)c(OCCOc2cc(C(=O)C=[N+]=[N-])ccc2N(CC(=O)O)CC(=O)O)c1 [diazo-2, 1-(2-bis(carboxymethyl)amino-5-methyl) phenoxy-2-(2-bis(carboxymethyl)amino-5-(diazoacetyl)phenoxy) ethane] | dropped precipitously | about 50 nM
0 | COc1cc(C(=O)C=[N+]=[N-])ccc1N(CC(=O)O)CC(=O)O [diazo-3, 2-methoxy-4-(diazoacetyl)aniline-N, N-diacetic acid] | did not have any effect on the intracellular Ca^2+ concentration; also recorded: no detectable effect on Ca^2+ hemeostasis | 
